In patent US5177223A, “Indoleacetic acid derivatives, process for their preparation, and medicines containing same as active ingredients” (Zeria Pharmaceutical Co., Ltd., priority 1988, dated 1993):
Several values for one entry are separate records, joined by “and”; a condition that tells them apart may be missing. Equal entries are not always repeated. Structures can show the parent of a compound that is named as a salt. Where two headings read alike, the source gives them in different places.

Columns and labels:
[1] = system: gastric-acid secretion; experiment: Test of Inhibition of Gastric-Acid Secretion by Histamine Stimulation; assay type: in vivo, Male SD rats; conditions: rat
Method: Test of Inhibition of Gastric-Acid Secretion by Histamine Stimulation
A feeding tube (fr. 3.5) for injecting test medicines was inserted into the duodenum, and the pylorus was ligatured. A polyethylene tube (inner diameter: 7 mm) was used in the anterior stomach and gastric fistula was performed. After washing the inside of the stomach with heated physiological salt solution (37° C.) several times, the body was closed. A tube with a fin was inserted into the caudal vein and was fastened with a tape and it was connected to a infusion pump (Harvard). The rats were enclosed in a KN Ballman II cage (Natsume Seisakusho). Gastric juice flowed from the fistula was collected with a messcylinder every one hour. Starting from one hour after the operation, histamine was continuously injected at a rate of 1.4 ml/hour through the caudal vein. Then, test compounds suspended in 0.5% sodium caboxy methyl cellulose (Na-CMC) were administered one hour after the start of the histamine injection. The gastric juice thus extracted in a period from one hour after the administration of the chemical to four hours after that was titrated by using an automatic titration apparatus (Kyoto Electronic) with 0.1N NaOH to adjust pH 7, and the quantity of the gastric juice was measured to obtain the total acid output.

[2] = system: carrageenin plantar edema; experiment: Test of Carrageenin Plantar Edema; assay type: in vivo, Male Wistar rats; conditions: for inhibition rate at the peak compared with that of indomethacin: 84.0 μmol/kg; for inhibition rate at the peak compared with that of indomethacin / ED50 value relative to that of indomethacin: compared with indomethacin; for ED50: read-out: Carrageenin edema ED50
Method: Test of Carrageenin Plantar Edema
After the body weight of each rat had been measured, the volume of the right hind-leg of the rat was measured by using an apparatus for measuring plantar volumes. The rats were then divided into groups so that the groups have the same body weight average and plantar volume average. A test compound was suspended in an aqueous solution of 5% tragacanth gum and then orally administered to each of the rats. 0.1 ml of a physiological saline of 1% carrageenin was hypodarmically injected into the sole of the right hind-leg of each rat. The volume was measured for each rat every 1 hour for 5 hours. An edema rate was determined by using a rate of increase in the volume measured after treatment to the volume measured before treatment.

[3] = system: gastric mucosa; experiment: Test of Injury to Gastric Mucosa; assay type: in vivo, Male Wistar rats; design: key to Ulcer Index: ulcer index determined by the Munchow method; conditions: oral, rat; for Ulcer Index / Ulcer occurrence (%): 5 hours; for degree of injury to the gastric mucosa: as compared with indomethacin
Method: Test of Injury to Gastric Mucosa
Male Wistar rats each having a body weight of about 180 to 200 g were divided into groups consisting of 10 rats and were fasted for 24 hours. After body weight of each rat has been measured, a test compound was suspended in an aqueous solution of 5% tragacanth gum and then orally administered to each rat. The rats were fasted again, and after 5 hours had passed, they were killed by cervical dislocation. A 1% formalin solution was injected into the gastric cavity of each of the rats so that it was semifixed. The gaster of each rat was cut along the greater curvature of the stomach, and the ulcer index of each rat was measured under a stereoscopic microscope and determined by the Munchow method. The Mann-Whitney U-test was applied to the statistic data processing.

[4] = system: ICR male mice; experiment: Acute Toxicity Test; assay type: in vivo; conditions: oral, single dose 25, 50 and 75 mg/kg each
Method: A test compound was suspended in an aqueous solution of 5% gum arabic and then orally administered to each of 4 to 5-week old ICR male mice (Charles River Co., Ltd.) each having a body weight of 22 to 30 g in each group consisting of 3 to 4 mice, once in each of doses 25, 50, 75, 200 and 500 mg/kg.

[5] = oral, rat, dose 8.4 μmol/kg (Example 2 6.4, Example 5 6.9, indomethacin 3.0 mg/kg)
[6] = oral, rat, dose 84.0 μmol/kg (Example 2 64.0, Example 5 69.0, indomethacin 30.0 mg/kg)
[7] = dose 25.2 μmol/kg (Example 2 19.2 mg/kg)
[8] = dose 84.0 μmol/kg (Example 2 64.0, Example 5 69.0, indomethacin 30.0 mg/kg)
[9] = dose 84.0 μmol/kg (Example 2 64.0, Example 5 69.0, indomethacin 30.0 mg/kg), ** p < 0.01
[10] = oral, rat, dose 28.0 μmol/kg (Example 5 23.0, indomethacin 10.0 mg/kg)
[11] = dose 28.0 μmol/kg (Example 5 23.0, indomethacin 10.0 mg/kg)
[12] = dose 28.0 μmol/kg (Example 5 23.0, indomethacin 10.0 mg/kg), ** p < 0.01

| Structure (SMILES) | inhibition rate at the peak compared with that of indomethacin ([2]; oral, rat) | Carrageenin edema inhibition (%) rate at peak [2, 5] | Carrageenin edema inhibition (%) rate at peak [2, 6] | ED50 value relative to that of indomethacin ([2]; oral, rat) | ED50 ([2]; oral, rat) | Ulcer occurrence (%) [3, 8] | Ulcer Index [3, 9] | degree of injury to the gastric mucosa [3] | Carrageenin edema inhibition (%) rate at peak [2, 10] | Ulcer occurrence (%) [3, 11] | Ulcer Index [3, 12] | further results |
| --- | --- | --- | --- | --- | --- | --- | --- | --- | --- | --- | --- | --- |
| CN/C(=N/CCSCc1nc[nH]c1C)NC#N [Cimetidine, reference compound] |  |  |  |  |  |  |  |  |  |  |  | Gastric-acid secretion inhibition rate (%) ([1]; dose 30 mg/kg): 32.3% |
| COc1ccc2c(c1)c(CC(=O)OCC(=O)NCCCOc1cccc(CN3CCCCC3)c1)c(C)n2C(=O)c1ccc(Cl)cc1 [Example 2, N-[3-[3-(piperidinomethyl)phenoxy]propyl]carbamoylmethyl 1-(4-chlorobenzoyl)-5-methoxy-2-methyl-3-indolylacetate maleate] | slightly higher | 34.9% | 62.6% | substantially the same | 27.8 µmol/kg and 21.1 mg/kg | 14% | 5.9 ± 4.92 | extremely low degree of injury |  |  |  | Carrageenin edema inhibition (%) rate at peak ([2]; oral, rat, dose 25.2 μmol/kg (Example 2 19.2 mg/kg)): 50.4%; Ulcer Index [3, 7]: 1.3 ± 0.63; Ulcer occurrence (%) [3, 7]: 0%; Ulcer occurrence (%) ([3]; dose 251.9 μmol/kg (Example 2 192.0 mg/kg)): 40%; Ulcer Index ([3]; dose 251.9 μmol/kg (Example 2 192.0 mg/kg), * p < 0.05): 17.5 ± 15.84 |
| COc1ccc2c(c1)c(CC(=O)OCCSCC(=O)NCCCOc1cccc(CN3CCCCC3)c1)c(C)n2C(=O)c1ccc(Cl)cc1 [Example 5, 2-[N-[3-[3-(piperidinomethyl)phenoxy]propyl]carbamoylmethylthio]ethyl 1-(4-chlorobenzoyl)-5-methoxy-2-methyl-3-indolylacetate maleate] | slightly higher | 19.1% | 68.4% | about 2 times | 47.8 µmol/kg and 39.3 mg/kg | 0% | 0.0 ± 0.00 | extremely low degree of injury | 41.2% | 0% | 0.1 ± 0.01 | Carrageenin edema inhibition (%) rate at peak ([2]; oral, rat, dose 280.0 μmol/kg (Example 5 230.0 mg/kg)): 72.7%; Ulcer Index ([3]; dose 280.0 μmol/kg (Example 5 230.0 mg/kg)): 0.0 ± 0.00; Gastric-acid secretion inhibition rate (%) ([1]; dose 22 mg/kg): 47.4%; Gastric-acid secretion inhibition rate (%) ([1]; dose 44 mg/kg): 74.1% |
| COc1ccc2c(c1)c(CC(=O)O)c(C)n2C(=O)c1ccc(Cl)cc1 [Indomethacin, indomethacin, reference compound] |  | 49.8% | 55.9% |  |  | 80% | 62.1 ± 16.50 |  | 59.4% | 70% | 46.5 ± 15.00 | ED50 ([2]; Rattus norvegicus, po): 20.6 µmol/kg and 7.4 mg/kg; Carrageenin edema inhibition (%) rate at peak ([2]; oral, rat, dose 2.8 μmol/kg (indomethacin 1.0 mg/kg)): 24.6%; Ulcer occurrence (%) ([3]; dose 56.0 μmol/kg (indomethacin 20.0 mg/kg)): 70%; Ulcer Index ([3]; dose 56.0 μmol/kg (indomethacin 20.0 mg/kg), ** p < 0.01): 52.8 ± 17.47; death of mice [4]: all the mice in the groups, to which 25, 50 and 75 mg/kg of indomethacin were respectively administered, died |
